Earlier results as cited in US20200085783A1 (priority 2013, published 2020).

Experiments:
NaK pump = NaK pump (Rattus norvegicus, UniProt P06685)
[1] = read-out: in vitro IC50 growth inhibitory effects

| Structure (SMILES) | decrease in sensitivity of rodent compared to human cells (NaK pump) | IC50 [1] [nM] |
| --- | --- | --- |
| C[C@@H]1C[C@@]2(NC(=O)CS2)[C@]2(O)O[C@@H]3C[C@@]4(CO)[C@@H](CC[C@@H]5[C@@H]4CC[C@]4(C)[C@@H](C6=CC(=O)OC6)CC[C@]54O)C[C@H]3O[C@@H]2O1 [UNBS1450] | 100-1000 times | – |
| C[C@@H]1O[C@@H](O[C@H]2C[C@@H](O)[C@]3(CO)[C@H]4[C@H](O)C[C@]5(C)[C@@H](C6=CC(=O)OC6)CC[C@]5(O)[C@@H]4CC[C@]3(O)C2)[C@H](O)[C@H](O)[C@H]1O [ouabain] | – | 10 to 100 |
